Test results from PMC5218480 (PLoS ONE, 2017).

Test system: MV-4-11 cells
Assay: Gene expression microarray analysis (Affymetrix PrimeView) and GSEA
Type: cell-based, human
Parameters: RFU PODN (11730768_x_at) / Fold change /veh PODN (11730768_x_at) / RFU LINC00158 (11744669_a_at) / Fold change /veh LINC00158 (11744669_a_at) / RFU DUSP10 (11751237_a_at) / Fold change /veh DUSP10 (11751237_a_at) / RFU ID3 (11757404_x_at) / Fold change /veh ID3 (11757404_x_at) / RFU PLEKHG5 (11737974_s_at) / Fold change /veh PLEKHG5 (11737974_s_at) / RFU LRRC4B (11730491_at) / Fold change /veh LRRC4B (11730491_at) / RFU GIMAP4 (11747438_a_at) / Fold change /veh GIMAP4 (11747438_a_at) / RFU KRT8 (11758183_x_at) / Fold change /veh KRT8 (11758183_x_at) / RFU CNN1 (11734310_a_at) / Fold change /veh CNN1 (11734310_a_at) / RFU VPS37D (11726825_at) / Fold change /veh VPS37D (11726825_at) / RFU C10orf10 (11716522_x_at) / Fold change /veh C10orf10 (11716522_x_at) / RFU KIR2DL2 /// KIR2DL4 /// KIR2DL5A /// KIR2DL5B /// KIR2DS1 /// KIR2DS2 /// KIR2DS3 /// KIR2DS4 /// KIR3DL3 /// KIR3DL3 /// KIR3DS1 (11738374_at) / Fold change /veh KIR2DL2 /// KIR2DL4 /// KIR2DL5A /// KIR2DL5B /// KIR2DS1 /// KIR2DS2 /// KIR2DS3 /// KIR2DS4 /// KIR3DL3 /// KIR3DL3 /// KIR3DS1 (11738374_at) / RFU C1QL1 (11718748_at) / Fold change /veh C1QL1 (11718748_at) / RFU TMPRSS4 (11747572_a_at) / Fold change /veh TMPRSS4 (11747572_a_at) / RFU HAMP (11756126_x_at) / Fold change /veh HAMP (11756126_x_at) / RFU RNFT2 (11725882_a_at) / Fold change /veh RNFT2 (11725882_a_at) / RFU NR4A2 (11747474_a_at) / Fold change /veh NR4A2 (11747474_a_at) / RFU ABCC12 (11746883_a_at) / Fold change /veh ABCC12 (11746883_a_at) / RFU TMEM136 (11760407_x_at) / Fold change /veh TMEM136 (11760407_x_at) / RFU CLDN22 /// WWC2 (11732394_at) / Fold change /veh CLDN22 /// WWC2 (11732394_at) / RFU HLA-DPB1 (11760878_x_at) / Fold change /veh HLA-DPB1 (11760878_x_at) / RFU SPINT1 (11716480_a_at) / Fold change /veh SPINT1 (11716480_a_at) / RFU GAP43 (11754022_s_at) / Fold change /veh GAP43 (11754022_s_at) / RFU A4GNT (11735810_at) / Fold change /veh A4GNT (11735810_at) / RFU PRB3 (11715151_x_at) / Fold change /veh PRB3 (11715151_x_at) / RFU TUBB4B (11761932_at) / Fold change /veh TUBB4B (11761932_at) / RFU CAPN14 (11732068_a_at) / Fold change /veh CAPN14 (11732068_a_at) / RFU TMCC2 (11721928_a_at) / Fold change /veh TMCC2 (11721928_a_at) / RFU IRGQ (11745062_a_at) / Fold change /veh IRGQ (11745062_a_at) / RFU FAM174B (11720279_a_at) / Fold change /veh FAM174B (11720279_a_at) / RFU TMPRSS4 (11748680_a_at) / Fold change /veh TMPRSS4 (11748680_a_at) / RFU FAM212B (11763350_a_at) / Fold change /veh FAM212B (11763350_a_at) / RFU PLEKHG5 (11743358_a_at) / Fold change /veh PLEKHG5 (11743358_a_at) / RFU ZSCAN30 (11745921_a_at) / Fold change /veh ZSCAN30 (11745921_a_at) / RFU CMKLR1 (11741424_a_at) / Fold change /veh CMKLR1 (11741424_a_at) / RFU LOC101060620 /// MAPK8IP1 (11723275_at) / Fold change /veh LOC101060620 /// MAPK8IP1 (11723275_at) / RFU SPTSSB (11747773_x_at) / Fold change /veh SPTSSB (11747773_x_at) / RFU PRSS12 (11739890_at) / Fold change /veh PRSS12 (11739890_at) / RFU BIN1 (11741810_x_at) / Fold change /veh BIN1 (11741810_x_at) / RFU WNT11 (11732464_a_at) / Fold change /veh WNT11 (11732464_a_at) / RFU C10orf10 (11716521_a_at) / Fold change /veh C10orf10 (11716521_a_at) / RFU C5orf56 (11738089_at) / Fold change /veh C5orf56 (11738089_at) / RFU CYB561 (11721691_x_at) / Fold change /veh CYB561 (11721691_x_at) / RFU ANKRD19P (11752326_a_at) / Fold change /veh ANKRD19P (11752326_a_at) / RFU OR2T12 /// OR2T33 /// OR2T8 (11738714_s_at) / Fold change /veh OR2T12 /// OR2T33 /// OR2T8 (11738714_s_at) / RFU VCAN (11748164_a_at) / Fold change /veh VCAN (11748164_a_at) / RFU JSRP1 (11732532_at) / Fold change /veh JSRP1 (11732532_at) / RFU KRTAP10-11 (11738290_x_at) / Fold change /veh KRTAP10-11 (11738290_x_at) / RFU MYO3A (11730013_a_at) / Fold change /veh MYO3A (11730013_a_at) / RFU EBF3 (11725865_a_at) / Fold change /veh EBF3 (11725865_a_at) / RFU CAMK2N1 (11719241_x_at) / Fold change /veh CAMK2N1 (11719241_x_at) / RFU C5orf56 (11738088_a_at) / Fold change /veh C5orf56 (11738088_a_at) / RFU OLFML3 (11715873_a_at) / Fold change /veh OLFML3 (11715873_a_at) / RFU LOC100653217 /// NTM (11731650_a_at) / Fold change /veh LOC100653217 /// NTM (11731650_a_at) / RFU MAPK11 (11762145_a_at) / Fold change /veh MAPK11 (11762145_a_at) / RFU FIZ1 (11724087_x_at) / Fold change /veh FIZ1 (11724087_x_at) / RFU OASL (11726364_x_at) / Fold change /veh OASL (11726364_x_at) / RFU SOX15 (11748057_x_at) / Fold change /veh SOX15 (11748057_x_at) / RFU CD79A (11719716_a_at) / Fold change /veh CD79A (11719716_a_at) / RFU HIST1H1D (11736915_at) / Fold change /veh HIST1H1D (11736915_at) / RFU CASKIN2 (11723855_a_at) / Fold change /veh CASKIN2 (11723855_a_at) / RFU LOC730098 (11760151_x_at) / Fold change /veh LOC730098 (11760151_x_at) / RFU OR4N2 (11742367_at) / Fold change /veh OR4N2 (11742367_at) / RFU PRRT2 (11749266_a_at) / Fold change /veh PRRT2 (11749266_a_at) / RFU SNX32 (11753110_a_at) / Fold change /veh SNX32 (11753110_a_at) / RFU CDHR5 (11726645_a_at) / Fold change /veh CDHR5 (11726645_a_at) / RFU RCAN1 (11760418_a_at) / Fold change /veh RCAN1 (11760418_a_at) / RFU FAM167A (11723789_a_at) / Fold change /veh FAM167A (11723789_a_at) / RFU FAM26E (11764081_at) / Fold change /veh FAM26E (11764081_at) / RFU ISYNA1 (11749810_s_at) / Fold change /veh ISYNA1 (11749810_s_at) / RFU ACY1 (11761880_at) / Fold change /veh ACY1 (11761880_at) / RFU 11764098_at / Fold change /veh 11764098_at / RFU SAMD14 (11745864_x_at) / Fold change /veh SAMD14 (11745864_x_at) / RFU NPB (11741838_a_at) / Fold change /veh NPB (11741838_a_at) / RFU TMPRSS6 (11731388_a_at) / Fold change /veh TMPRSS6 (11731388_a_at) / RFU KRTAP10-2 (11738614_at) / Fold change /veh KRTAP10-2 (11738614_at) / RFU ARHGAP8 /// PRR5-ARHGAP8 (11727945_x_at) / Fold change /veh ARHGAP8 /// PRR5-ARHGAP8 (11727945_x_at) / RFU KRTAP5-7 /// NADSYN1 (11734609_at) / Fold change /veh KRTAP5-7 /// NADSYN1 (11734609_at) / RFU RASL12 (11751679_a_at) / Fold change /veh RASL12 (11751679_a_at) / RFU CDKN2B (11736163_a_at) / Fold change /veh CDKN2B (11736163_a_at) / RFU PRF1 (11729649_at) / Fold change /veh PRF1 (11729649_at) / RFU, ZNF638 /// ZNF638-IT1 / Fold change vs veh, ZNF638 /// ZNF638-IT1 / RFU, PANK3 / Fold change vs veh, PANK3 / RFU, SH3YL1 / Fold change vs veh, SH3YL1 / RFU, ZEB2 / Fold change vs veh, ZEB2 / RFU, NRIP1 / Fold change vs veh, NRIP1 / RFU, PTTG1IP / Fold change vs veh, PTTG1IP / RFU, CAPN2 / Fold change vs veh, CAPN2 / RFU, MED14 / Fold change vs veh, MED14 / RFU, SNORA58 / Fold change vs veh, SNORA58 / RFU, C1orf63 / Fold change vs veh, C1orf63 / RFU, LRRFIP1 / Fold change vs veh, LRRFIP1 / RFU, NDUFAF7 / Fold change vs veh, NDUFAF7 / RFU, SLC12A2 / Fold change vs veh, SLC12A2 / RFU, IBTK / Fold change vs veh, IBTK / RFU, ESF1 / Fold change vs veh, ESF1 / Fold change vs veh, TMEM50B / RFU, TAOK1 / Fold change vs veh, TAOK1 / RFU, ACBD3 / Fold change vs veh, ACBD3 / RFU, TMA16 / Fold change vs veh, TMA16 / RFU, RWDD3 / Fold change vs veh, RWDD3 / RFU, BCAT1 / Fold change vs veh, BCAT1 / RFU, EDEM3 / Fold change vs veh, EDEM3 / RFU, TMEM33 / Fold change vs veh, TMEM33 / RFU, WDR75 / Fold change vs veh, WDR75 / RFU, AHCTF1 / Fold change vs veh, AHCTF1 / RFU, TFRC / Fold change vs veh, TFRC / RFU, ZDHHC17 / Fold change vs veh, ZDHHC17 / RFU, NOM1 / Fold change vs veh, NOM1 / RFU, ARL8B / Fold change vs veh, ARL8B / RFU, ZBTB11 / Fold change vs veh, ZBTB11 / RFU, TAMM41 / Fold change vs veh, TAMM41 / RFU, KIAA1704 /// LOC100996395 / Fold change vs veh, KIAA1704 /// LOC100996395 / RFU, ING1 / Fold change vs veh, ING1 / RFU, TRMT61B / Fold change vs veh, TRMT61B / RFU, FUBP3 / Fold change vs veh, FUBP3 / RFU, TP53 / Fold change vs veh, TP53 / RFU, TNKS2 / Fold change vs veh, TNKS2 / RFU, ZFP14 / Fold change vs veh, ZFP14 / RFU, ACTR2 / Fold change vs veh, ACTR2 / RFU, PPP3R1 / Fold change vs veh, PPP3R1 / RFU, PIK3R1 / Fold change vs veh, PIK3R1 / RFU, HNRNPA1 / Fold change vs veh, HNRNPA1 / RFU, RNF170 / Fold change vs veh, RNF170 / RFU, ZNF28 / Fold change vs veh, ZNF28 / RFU, RNGTT / Fold change vs veh, RNGTT / RFU, OGT / Fold change vs veh, OGT / RFU, BRD1 / Fold change vs veh, BRD1 / RFU, MARS / Fold change vs veh, MARS / RFU, ZNF655 / Fold change vs veh, ZNF655 / RFU, FAHD1 / Fold change vs veh, FAHD1 / RFU, BDP1 / Fold change vs veh, BDP1 / RFU, LRRCC1 / Fold change vs veh, LRRCC1 / RFU, ARID1A / Fold change vs veh, ARID1A / RFU, ZNF146 / Fold change vs veh, ZNF146 / RFU, ZNF330 / Fold change vs veh, ZNF330 / RFU, GPN3 / Fold change vs veh, GPN3 / RFU, C9orf123 / Fold change vs veh, C9orf123 / RFU, N4BP2L2 / Fold change vs veh, N4BP2L2 / RFU, ARFIP1 / Fold change vs veh, ARFIP1 / RFU, FAM179B / Fold change vs veh, FAM179B / RFU, BCL10 / Fold change vs veh, BCL10 / RFU, UHRF1BP1L / Fold change vs veh, UHRF1BP1L / RFU, BET1 / Fold change vs veh, BET1 / RFU, CNOT2 / Fold change vs veh, CNOT2 / RFU, ZNF268 / Fold change vs veh, ZNF268 / Fold change vs veh, ZNF507 / RFU, DGCR2 / Fold change vs veh, DGCR2 / RFU, WDSUB1 / Fold change vs veh, WDSUB1 / Fold change vs veh, HSP90B1 /// MIR3652 / RFU, ADSS / Fold change vs veh, ADSS / RFU, GK / Fold change vs veh, GK / RFU, ZNF148 / Fold change vs veh, ZNF148 / RFU, TAF9 / Fold change vs veh, TAF9 / RFU, SLC1A5 / Fold change vs veh, SLC1A5 / RFU, SLMO2 / Fold change vs veh, SLMO2 / RFU, ABCC4 / Fold change vs veh, ABCC4 / RFU, LOC101060439 /// RAP1B / Fold change vs veh, LOC101060439 /// RAP1B / RFU, RFX7 / Fold change vs veh, RFX7 / RFU, GTPBP10 / Fold change vs veh, GTPBP10 / RFU, CNEP1R1 / Fold change vs veh, CNEP1R1 / RFU, BIVM-ERCC5 /// ERCC5 / Fold change vs veh, BIVM-ERCC5 /// ERCC5 / RFU, ILF3 / Fold change vs veh, ILF3 / RFU 11762660_at / Fold change /veh 11762660_at / RFU VCAN (11757783_s_at) / Fold change /veh VCAN (11757783_s_at) / RFU DDX43 (11728927_at) / Fold change /veh DDX43 (11728927_at) / RFU KRT8 (11758188_x_at) / Fold change /veh KRT8 (11758188_x_at) / RFU NKD1 (11759106_at) / Fold change /veh NKD1 (11759106_at) / RFU SRD5A1 (11742802_a_at) / Fold change /veh SRD5A1 (11742802_a_at) / RFU TPSAB1 /// TPSB2 (11721975_s_at) / Fold change /veh TPSAB1 /// TPSB2 (11721975_s_at) / RFU GSTM3 (11746129_a_at) / Fold change /veh GSTM3 (11746129_a_at) / RFU IL23R (11737362_x_at) / Fold change /veh IL23R (11737362_x_at) / RFU TMEM51 (11727254_a_at) / Fold change /veh TMEM51 (11727254_a_at) / RFU PIWIL2 (11732686_x_at) / Fold change /veh PIWIL2 (11732686_x_at) / RFU ORM1 (11744905_x_at) / Fold change /veh ORM1 (11744905_x_at) / RFU CCDC152 (11743942_at) / Fold change /veh CCDC152 (11743942_at) / RFU ECM1 (11717891_a_at) / Fold change /veh ECM1 (11717891_a_at) / RFU IL23R (11748794_a_at) / Fold change /veh IL23R (11748794_a_at) / RFU TNFAIP8L3 (11732012_x_at) / Fold change /veh TNFAIP8L3 (11732012_x_at) / RFU MBOAT4 (11741988_at) / Fold change /veh MBOAT4 (11741988_at) / RFU 11764193_at / Fold change /veh 11764193_at / RFU TMEM53 (11763286_at) / Fold change /veh TMEM53 (11763286_at) / RFU MAGEB2 (11727129_at) / Fold change /veh MAGEB2 (11727129_at) / RFU TMEM200A (11744735_a_at) / Fold change /veh TMEM200A (11744735_a_at) / RFU CCDC152 (11751479_a_at) / Fold change /veh CCDC152 (11751479_a_at) / RFU FAM211A (11726209_a_at) / Fold change /veh FAM211A (11726209_a_at) / RFU RGS16 (11746705_a_at) / Fold change /veh RGS16 (11746705_a_at) / RFU VCAN (11755009_s_at) / Fold change /veh VCAN (11755009_s_at) / RFU RHOB (11743442_s_at) / Fold change /veh RHOB (11743442_s_at) / RFU RGS16 (11720943_a_at) / Fold change /veh RGS16 (11720943_a_at) / RFU RGS16 (11720944_at) / Fold change /veh RGS16 (11720944_at) / RFU, VPS4B / Fold change vs veh, VPS4B / RFU, CREB1 / Fold change vs veh, CREB1 / RFU, DNAJC13 / Fold change vs veh, DNAJC13 / RFU, GNAQ / Fold change vs veh, GNAQ / RFU, CDK5R1 / Fold change vs veh, CDK5R1 / RFU, ZRANB3 / Fold change vs veh, ZRANB3 / RFU, CUL4A / Fold change vs veh, CUL4A / RFU, CCNY / Fold change vs veh, CCNY / RFU, UFL1 / Fold change vs veh, UFL1 / RFU, COG3 / Fold change vs veh, COG3 / RFU, DIAPH2 / Fold change vs veh, DIAPH2 / RFU, SKA2 / Fold change vs veh, SKA2 / RFU, AFF3 / Fold change vs veh, AFF3 / RFU, LMF1 / Fold change vs veh, LMF1 / RFU, IPO11 / Fold change vs veh, IPO11 / RFU, DFFB / Fold change vs veh, DFFB / RFU, FOXP1 / Fold change vs veh, FOXP1 / RFU, CARD8 / Fold change vs veh, CARD8 / RFU, STRN3 / Fold change vs veh, STRN3 / RFU, ADK / Fold change vs veh, ADK / RFU, RASSF2 / Fold change vs veh, RASSF2 / RFU, WIPF1 / Fold change vs veh, WIPF1 / RFU, LARP1B / Fold change vs veh, LARP1B / RFU, RASA1 / Fold change vs veh, RASA1 / RFU, RB1 / Fold change vs veh, RB1 / RFU, PPFIA1 / Fold change vs veh, PPFIA1 / RFU, MAT2A / Fold change vs veh, MAT2A / RFU, CCT5 / Fold change vs veh, CCT5 / RFU, WDR92 / Fold change vs veh, WDR92 / RFU, CUX1 / Fold change vs veh, CUX1 / RFU, TTC7A / Fold change vs veh, TTC7A / RFU, TMEM135 / Fold change vs veh, TMEM135 / RFU, DEPTOR / Fold change vs veh, DEPTOR / RFU, CPM / Fold change vs veh, CPM / RFU, DNAJB6 / Fold change vs veh, DNAJB6 / RFU, CACNA2D3 / Fold change vs veh, CACNA2D3 / RFU, DTX4 / Fold change vs veh, DTX4 / RFU, TFCP2 / Fold change vs veh, TFCP2 / RFU, GMCL1 /// GMCL1P1 / Fold change vs veh, GMCL1 /// GMCL1P1 / RFU, AEBP2 / Fold change vs veh, AEBP2 / RFU, SNHG1 /// SNORD22 /// SNORD25 /// SNORD26 /// SNORD27 /// SNORD28 /// SNORD29 /// SNORD31 / Fold change vs veh, SNHG1 /// SNORD22 /// SNORD25 /// SNORD26 /// SNORD27 /// SNORD28 /// SNORD29 /// SNORD31 / Fold change (Aza/veh), C12orf56 (ProbeSet 11735607_a_at) / Fold change (ACY-1035/veh), C12orf56 (ProbeSet 11735607_a_at) / Fold change (Aza/veh), FGFR1OP (ProbeSet 11751329_s_at) / Fold change (ACY-1035/veh), FGFR1OP (ProbeSet 11751329_s_at) / Fold change (Aza/veh), VPS36 (ProbeSet 11739960_a_at) / Fold change (ACY-1035/veh), VPS36 (ProbeSet 11739960_a_at) / RFU SYPL1 (11715823_x_at) / Fold change /veh SYPL1 (11715823_x_at) / RFU IGFBP7 (11715501_s_at) / Fold change /veh IGFBP7 (11715501_s_at) / RFU REEP3 (11722064_at) / Fold change /veh REEP3 (11722064_at) / RFU IGLL1 (11728026_x_at) / Fold change /veh IGLL1 (11728026_x_at): dose or concentration left out as unconfirmed
Details: ProbeSet 11745428_a_at; LIST D

Nc1ncn([C@@H]2O[C@H](CO)[C@@H](O)[C@H]2O)c(=O)n1 [azacitidine]
Fold change vs veh, DFFB: 0.78
